Measured values: patent publication US6958318B2, “Recombinant bacterial cells for delivery of PNP to tumor cells” (The UAB Research Foundation, priority 1993, dated 2005)
“Also recorded” adds a separate entry of the source.

How the values were obtained:
[1] = tested on: T-84 colon carcinoma cells; assay: Toxicity of MeP and MeP-dR in untransfected T-84 cells; assay type: cell-based, human; settings: 5 days
Experimental: T-84 colon carcinoma cells were grown in Dulbecco's modified Eagle medium containing F12 nutrient medium (DMEM/F12) (GIBCO/BRL, Gaithersburg, Md.) in 6 well trays to a density of approximately […] (−20% confluency).
Untransfected T-84 colon carcinoma cells were treated with increasing concentrations of either MeP-dR or MeP. After 5 days the cells were removed from each well and the number of dye excluding cells were determined with the aid of a hemacytometer. Cells were studied both at passage 48 (p. 48) and passage 61 (p. 61). MeP was obtained from Sigma Chemical Company (St. Louis, Mo.). MeP-dR was synthesized by standard methods as described (J. A. Montgomery and K. Howson, J. Med. Chem., 11:48-52 (1968)). The nucleoside and base were dissolved in serum free DMEM/F12 at a concentration of 1 mg/ml and added directly to 1 ml DMEM/F12 with 10% fetal bovine serum at the concentrations described below in order to cover 1-2×10^5 cells/well.
Initial cytopathic effects due to MeP were observed within 24 hours (for example, rounding of cells, with some cells detaching from plate). Viable cells were counted 5 days following addition of drug. […] Trypan blue exclusion was used to confirm viability in cells retaining recognizable structure at all concentrations studied. […] If the toxicity of MeP-dR is due to very low levels of liberation of MeP by human PNP, then combination with selective inhibitors of human PNP could prevent this toxicity.

E. coli PNP = E. coli PNP (Escherichia coli, UniProt P0ABP8); assay type: cell-based; settings: 160 μM, 5 day period, E. coli PNP transfected cells
E. coli PNP, sequence (P0ABP8 2-239): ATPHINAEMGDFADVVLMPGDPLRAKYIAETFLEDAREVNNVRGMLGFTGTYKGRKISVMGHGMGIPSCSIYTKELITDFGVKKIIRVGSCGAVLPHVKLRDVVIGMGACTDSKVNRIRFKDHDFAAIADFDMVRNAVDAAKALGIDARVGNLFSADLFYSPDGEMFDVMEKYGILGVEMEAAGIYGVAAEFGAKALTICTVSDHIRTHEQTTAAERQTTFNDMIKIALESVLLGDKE

B16 melanoma cells = assay: Bystander killing, mixed wild type and PNP-transduced B16 cells; assay type: cell-based, murine; settings: 20 μg/ml

SMILES: Cc1ncnc2c1ncn2[C@H]1C[C@H](O)[C@@H](CO)O1 [MeP-dR, 9-(β-D-2-deoxyerythropentofuranosyl)-6-methylpurine]
- Toxicity to cells that were not transfected ([1]; 160 μM): minimally toxic
- Cells killed ([1]; 200 and 400 μM): less than half of the cells were killed
- Cell death ([1]; lower concentrations): did not cause any appreciable cell death
- MeP-dR converted to MeP in culture medium (E. coli PNP): More than 75%
- Toxicity to untransduced B16 cells (B16 melanoma cells): not toxic
- Cell proliferation when as few as 2% of cells express E. coli PNP (B16 melanoma cells; mixed culture): completely eliminated cell proliferation; also recorded: Complete abrogation of cellular proliferation
- Share of cells expressing PNP required for total population cell killing (B16 melanoma cells; LDH release assay): 10%
